One assay deals with T1, visual cycle isomerase (Bos taurus, UniProt Q28175).
T1 construct: Bovine Retinal Pigment Epithelium (RPE) microsome membranes were the source of a visual cycle isomerase; from tissue; host or cells: bovine retinal pigment epithelium microsome membranes; CRALBP made in E. coli
T1 sequence (Q28175 2-533 limits assumed): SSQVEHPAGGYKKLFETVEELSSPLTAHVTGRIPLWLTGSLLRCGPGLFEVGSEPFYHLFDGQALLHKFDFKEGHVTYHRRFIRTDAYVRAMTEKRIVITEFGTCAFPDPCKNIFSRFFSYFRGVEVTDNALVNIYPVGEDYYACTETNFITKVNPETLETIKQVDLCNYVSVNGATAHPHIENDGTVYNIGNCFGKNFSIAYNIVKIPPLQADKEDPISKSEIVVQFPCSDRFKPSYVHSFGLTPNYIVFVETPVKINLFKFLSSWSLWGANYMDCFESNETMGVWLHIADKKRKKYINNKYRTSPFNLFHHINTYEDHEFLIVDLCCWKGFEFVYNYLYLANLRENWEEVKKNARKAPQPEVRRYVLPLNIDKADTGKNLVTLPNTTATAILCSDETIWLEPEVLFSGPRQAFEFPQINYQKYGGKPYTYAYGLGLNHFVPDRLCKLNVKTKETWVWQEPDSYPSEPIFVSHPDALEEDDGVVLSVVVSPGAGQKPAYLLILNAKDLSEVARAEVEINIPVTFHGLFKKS
Nature of the assay: In vitro isomerase inhibition assay, bovine RPE microsome membranes. Format: biochemical. The conditions noted are these: inhibition of 11-cis retinol formation; values given as ranges. The method, then:
The capability of amine derivative compounds to inhibit the activity of a visual cycle isomerase was determined
Isomerase inhibition reactions were performed essentially as described (Stecher et al., J. Biol. Chem. 274:8577-85 (1999); see also Golczak et al., Proc. Natl. Acad. Sci. USA 102:8162-67 (2005)). Bovine Retinal Pigment Epithelium (RPE) microsome membranes were the source of a visual cycle isomerase.
Bovine RPE microsome membrane extracts were prepared according to methods described (Golczak et al., Proc. Natl. Acad. Sci. USA 102:8162-67 (2005)) and stored at −80° C. Crude RPE microsome extracts were thawed in a 37° C. water bath, and then immediately placed on ice. 50 ml crude RPE microsomes were placed into a 50 ml Teflon-glass homogenizer (Fisher Scientific, catalog no. 0841416M) on ice, powered by a hand-held DeWalt drill, and homogenized ten times upand down on ice under maximum speed. This process was repeated until the crude RPE microsome solution was homogenized. The homogenate was then subjected to centrifugation (50.2 Ti rotor (Beckman, Fullerton, Calif.), 13,000 RPM; 15360 Rcf) for 15 minutes at 4° C. The supernatant was collected and subjected to centrifugation at 42,000 RPM (160,000 Rcf; 50.2 Ti rotor) for 1 hour at 4° C. The supernatant was removed, and the pellets were suspended in 12 ml (final volume) cold 10 mM MOPS buffer, pH 7.0. The resuspended RPE membranes in 5 ml aliquots were homogenized in a glass-to-glass homogenizer (Fisher Scientific, catalog no.K885500-0021) to high homogeneity. Protein concentration was quantified using the BCA protein assay according to the manufacturer's protocol (Pierce, Rockford, Ill.). The homogenized RPE preparations were stored at −80° C.
Recombinant human apo cellular retinaldehyde-binding protein (CRALBP) was cloned and expressed according to standard methods in the molecular biology art (see Crabb et al., Protein Science 7:746-57 (1998); Crabb et al., J. Biol. Chem. 263:18688-92 (1988)). Briefly, total RNA was prepared from confluent ARPE^19 cells (American Type Culture Collection, Manassas, Va.), cDNA was synthesized using an oligo(dT)12-18 primer, and then DNA encoding CRALBP was amplified by two sequential polymerase chain reactions (see Crabb et al., J. Biol. Chem. 263:18688-92 (1988); Intres, et al., J. Biol. Chem. 269:25411-18 (1994); GenBank Accession No. L34219.1). The PCR product was sub-cloned into pTrcHis2-TOPO TA vector according to the manufacturer's protocol (Invitrogen Inc., Carlsbad, Calif.; catalog no. K4400-01), and then the sequence was confirmed according to standard nucleotide sequencing techniques. Recombinant 6×His-tagged human CRALBP was expressed in One Shot TOP 10 chemically competent E. coli cells (Invitrogen), and the recombinant polypeptide was isolated from E. coli cell lysates by nickel affinity chromatography using nickel (Ni) Sepharose XK16-20 columns for HPLC (Amersham Bioscience, Pittsburgh, Pa.; catalog no.17-5268-O2). The purified 6×His-tagged human CRALBP was dialyzed against 10 mM bis-tris-Propane (BTP) and analyzed by SDS-PAGE. The molecular weight of the recombinant human CRALBP was approximately 39 kDal.
Amine derivative compounds and control compounds were reconstituted in ethanol to 0.1 M. Ten-fold serial dilutions (10^−2, 10^−3, 10^−4, 10^−5, 10^−6 M) in ethanol of each compound were prepared for analysis in the isomerase assay.
The isomerase assay was performed in 10 mM bis-tris-propane (BTP) buffer, pH 7.5, 0.5% BSA (diluted in BTP buffer), 1 mM sodium pyrophosphate, 20 μM all-trans retinol (in ethanol), and 6 μM apo-CRALBP. The test compounds (2 μl) (final 1/15 dilution of serial dilution stocks) were added to the above reaction mixture to which RPE microsomes were added. The same volume of ethanol was added to the control reaction (absence of test compound). Bovine RPE microsomes (9 μl) (see above) were then added, and the mixtures transferred to 37° C. to initiate the reaction (total volume=150 μl). […]

Assay [1] relates to retinoid nuclear receptors (RAR and RxR). Nature of the assay: Retinoid nuclear receptor activity.

This note sets out measurements from patent US8450527B2, “Amine derivative compounds for treating ophthalmic diseases and disorders” (Acucela Inc., priority 2007, dated 2013).

In turn, `CCCC(O)(CCC)CCc1cccc(CCCN)c1` [Example 3, 4-(3-(3-aminopropyl)phenethyl)heptan-4-ol] showed an IC50 against visual cycle isomerase not above 1 µM.

The compound `NCCCc1cccc(CCC2(O)CCCCC2)c1` [Example 7, 1-(3-(3-aminopropyl)phenethyl)cyclohexanol] showed an IC50 at visual cycle isomerase not above 1 µM. The “effects on retinoid nuclear receptors (RAR and RxR)” value (“effects” below) in assay [1] is on record as “did not show significant effects”. As to `CCCC(O)(CCC)CCc1cccc(OCCN)c1` [Example 9, 4-(3-(2-aminoethoxy)phenethyl)heptan-4-ol], the IC50 at visual cycle isomerase was not above 1 µM.

For `NCCOc1cccc(CCC2(O)CCCCCC2)c1` [Example 10, 1-(3-(2-aminoethoxy)phenethyl)cycloheptanol], at visual cycle isomerase, the IC50 was not above 1 µM. For `NCCOc1cccc(CCC2(O)CCSCC2)c1` [Example 11, 4-(3-(2-aminoethoxy)phenethyl)tetrahydro-2H-thiopyran-4-ol], the IC50 at visual cycle isomerase was not above 1 µM. Regarding `NCCOc1cccc(CCC2(O)CCCCC2)c1` [Example 12, 1-(3-(2-aminoethoxy)phenethyl)cyclohexanol], on visual cycle isomerase, the IC50 is not above 1 µM. In assay [1], the “effects” value is listed as “did not show significant effects”.

In turn, `NCCC(O)c1cccc(CCC2(O)CCCCC2)c1` (stereo not drawn) [Example 15, 1-(3-(3-amino-1-hydroxypropyl)phenethyl)cyclohexanol] displayed an IC50 against visual cycle isomerase not above 1 µM. On to `NCCC(O)c1cccc(CCC2(O)CCCCCC2)c1` (stereo not drawn) [Example 16, 1-(3-(3-amino-1-hydroxypropyl)phenethyl)cycloheptanol], for which, on visual cycle isomerase, the IC50 was not above 1 µM. For the same compound, the “effects” value in assay [1] is “did not show significant effects”. On visual cycle isomerase, `NCCC(O)c1cccc(CCC2CCCC2)c1` (stereo not drawn) [Example 17, 3-amino-1-(3-(2-cyclopentylethyl)phenyl)propan-1-ol] returned a half-inhibitory concentration (IC50) not above 1 µM. With `CCCC(O)(CCC)CCc1cccc(C(O)CCN)c1` (stereo not drawn) [Example 19, 4-(3-(3-amino-1-hydroxypropyl)phenethyl)heptan-4-ol], the IC50 on visual cycle isomerase is not above 1 µM. At visual cycle isomerase, `NCCCc1cccc(CCC2(O)CCCCCC2)c1` [Example 20, 1-(3-(3-aminopropyl)phenethyl)cycloheptanol] had an IC50 not above 1 µM. Moreover, the “effects” value in assay [1] is given as “did not show significant effects”. In turn, `CCCCCc1cccc(CCCN)c1` [Example 27, 3-(3-pentylphenyl)propan-1-amine] gave an IC50 at visual cycle isomerase not above 1 µM. On visual cycle isomerase, `CC(C)(C)CCc1cccc(CCCN)c1` [Example 29, 3-(3-(3,3-dimethylbutyl)phenyl)propan-1-amine] returned an IC50 not above 1 µM.

On visual cycle isomerase, `NCCCc1cccc(CCCCc2ccccc2)c1` [Example 35, 3-(3-(4-phenylbutyl)phenyl)propan-1-amine] came in with an IC50 not above 1 µM.
